Measured values published in PubChem BioAssay AID1845204 (Molecular Pharmacology Branch, DTP, NCI, 2023).
Values joined by “and” are separate entries in the source; they are usually repeats but may differ in a detail not shown here. Equal entries are not always repeated. Active and inactive are the calls of the source. The calls were made as follows: active = viability on the fitted dose curve at most 10% of control; inactive = the rest.

Test system: HSSY-II tumor spheroid viability
Assay: Anticancer human tumor HSSY-II cell line growth inhibition;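 as to IC50: spheroids exposed to compounds for seven days before reading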;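 as to viability, T/C: spheroids exposed to compounds for seven days before reading; percent of DMSO vehicle control viability so 100% = untreated level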
Details: spheroids with HUVEC and MSC; for viability, T/C: stronger effect = lower value
Outline: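 Single agents and combinations were tested on spheroids built from tumor cells plus HUVEC and hMSC, at half-log dilutions starting at or near clinical Cmax, else 10 microM; final DMSO 0.25% (v/v).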

[1] = curve of first compound, second compound 30 pM
[2] = curve of first compound, second compound 94.9 pM
[3] = curve of first compound, second compound 0.0003 µM
[4] = curve of first compound, second compound 0.000949 µM
[5] = curve of first compound, second compound 0.003 µM
[6] = second compound 30 pM, first compound 0.0316 µM
[7] = second compound 30 pM, first compound 0.1 µM
[8] = second compound 30 pM, first compound 0.316 µM
[9] = second compound 30 pM, first compound 1 µM
[10] = second compound 30 pM, first compound 3.16 µM
[11] = second compound 30 pM, first compound 10 µM
[12] = second compound 94.9 pM, first compound 0.0316 µM
[13] = second compound 94.9 pM, first compound 0.1 µM
[14] = second compound 94.9 pM, first compound 0.316 µM
[15] = second compound 94.9 pM, first compound 1 µM
[16] = second compound 94.9 pM, first compound 3.16 µM
[17] = second compound 94.9 pM, first compound 10 µM
[18] = second compound 0.0003 µM, first compound 0.0316 µM
[19] = second compound 0.0003 µM, first compound 0.1 µM
[20] = second compound 0.0003 µM, first compound 0.316 µM
[21] = second compound 0.0003 µM, first compound 1 µM
[22] = second compound 0.0003 µM, first compound 3.16 µM
[23] = second compound 0.0003 µM, first compound 10 µM
[24] = second compound 0.000949 µM, first compound 0.0316 µM
[25] = second compound 0.000949 µM, first compound 0.1 µM
[26] = second compound 0.000949 µM, first compound 0.316 µM
[27] = second compound 0.000949 µM, first compound 1 µM
[28] = second compound 0.000949 µM, first compound 3.16 µM
[29] = second compound 0.000949 µM, first compound 10 µM
[30] = second compound 0.003 µM, first compound 0.0316 µM
[31] = second compound 0.003 µM, first compound 0.1 µM
[32] = second compound 0.003 µM, first compound 0.316 µM
[33] = second compound 0.003 µM, first compound 1 µM
[34] = second compound 0.003 µM, first compound 3.16 µM
[35] = second compound 0.003 µM, first compound 10 µM

COc1cc(C)[nH]c(=O)c1CN1CCc2c(Cl)cc(C(OC)C3COC3)c(Cl)c2C1=O (centres undefined) + COc1cc2c(cc1O)CCNC21CSC2c3c(OC(C)=O)c(C)c4c(c3C(COC1=O)N1C(O)C3Cc5cc(C)c(OC)c(O)c5C(C21)N3C)OCO4
IC50 [1]: > 10000 nM | IC50 [2]: > 10000 nM | IC50 [3]: < 31.6 nM | IC50 [4]: < 31.6 nM | IC50 [5]: < 31.6 nM | viability, T/C [6]: 132% | viability, T/C [7]: 117% | viability, T/C [8]: 108% | viability, T/C [9]: 92.5% | viability, T/C [10]: 86% | viability, T/C [11]: 90.1% | viability, T/C [12]: 121% | viability, T/C [13]: 99.9% | viability, T/C [14]: 97.8% | viability, T/C [15]: 89.7% | viability, T/C [16]: 81.4% | viability, T/C [17]: 70.8% | viability, T/C [18]: 20.1% | viability, T/C [19]: 15.3% | viability, T/C [20]: 19.4% | viability, T/C [21]: 23.8% | viability, T/C [22]: 21.3% | viability, T/C [23]: 19.3% | viability, T/C [24]: 3.35% | viability, T/C [25]: 3.82% | viability, T/C [26]: 3.22% | viability, T/C [27]: 4.24% | viability, T/C [28]: 4.87% | viability, T/C [29]: 4.39% | viability, T/C [30]: 0.33% | viability, T/C [31]: 0.35% | viability, T/C [32]: 0.32% | viability, T/C [33]: 0.3% | viability, T/C [34]: 0.32% | viability, T/C [35]: 0.52%

CC1COCCN1c1cc(-c2ccnn2C)c2ccnc(-c3ccn[nH]3)c2n1 (centres undefined)
viability, T/C (compound 0.0316 µM): 13.6% and 27.8% and 22.3% | viability, T/C (compound 0.1 µM): 6.39% and 6.26% and 6.5% | viability, T/C (compound 0.316 µM): 4.82% and 2.71% and 2.97% | viability, T/C (compound 1 µM): 4.16% and 1.96% and 2.24% | viability, T/C (compound 3.16 µM): 4.41% and 2.11% and 2.4% | viability, T/C (compound 10 µM): 6.25% and 2.76% and 2.66% | IC50 (curve of compound): < 31.6 nM

[2H]c1nc(C)nc([2H])c1-c1cc(NC[C@@H](C)c2cccc3c(C(=O)NC)ccnc23)ncn1
viability, T/C (compound 0.0316 µM): 95.9% and 98.9% and 105% | viability, T/C (compound 0.1 µM): 98.9% and 99.4% and 98.4% | viability, T/C (compound 0.316 µM): 95.8% and 98.1% and 101% | viability, T/C (compound 1 µM): 99.1% and 97.4% and 99.5% | viability, T/C (compound 3.16 µM): 99% and 92.2% and 97% | viability, T/C (compound 10 µM): 93.9% and 84.6% and 93% | IC50 (curve of compound): > 10000 nM

Cc1sc2c(c1C)C(c1ccc(Cl)cc1)=NC(CC(=O)Nc1ccc(O)cc1)c1nnc(C)n1-2 (centres undefined) + COc1cc2c(cc1O)CCNC21CSC2c3c(OC(C)=O)c(C)c4c(c3C(COC1=O)N1C(O)C3Cc5cc(C)c(OC)c(O)c5C(C21)N3C)OCO4
IC50 [1]: 108 nM | IC50 [2]: 54 nM | IC50 [3]: < 9.49 nM | IC50 [4]: < 9.49 nM | IC50 [5]: < 9.49 nM | viability, T/C (second compound 30 pM, first compound 0.00949 µM): 84.8% | viability, T/C (second compound 30 pM, first compound 0.03 µM): 78.4% | viability, T/C (second compound 30 pM, first compound 0.0949 µM): 53.1% | viability, T/C (second compound 30 pM, first compound 0.3 µM): 23.3% | viability, T/C (second compound 30 pM, first compound 0.949 µM): 14.2% | viability, T/C (second compound 30 pM, first compound 3 µM): 7.89% | viability, T/C (second compound 94.9 pM, first compound 0.00949 µM): 76.4% | viability, T/C (second compound 94.9 pM, first compound 0.03 µM): 60.5% | viability, T/C (second compound 94.9 pM, first compound 0.0949 µM): 40.5% | viability, T/C (second compound 94.9 pM, first compound 0.3 µM): 19.5% | viability, T/C (second compound 94.9 pM, first compound 0.949 µM): 11.1% | viability, T/C (second compound 94.9 pM, first compound 3 µM): 4.34% | viability, T/C (second compound 0.0003 µM, first compound 0.00949 µM): 11.4% | viability, T/C (second compound 0.0003 µM, first compound 0.03 µM): 13.4% | viability, T/C (second compound 0.0003 µM, first compound 0.0949 µM): 10.5% | viability, T/C (second compound 0.0003 µM, first compound 0.3 µM): 4.16% | viability, T/C (second compound 0.0003 µM, first compound 0.949 µM): 1.76% | viability, T/C (second compound 0.0003 µM, first compound 3 µM): 0.21% | outcome (second compound 0.000949 µM, first compound 0.00949 µM): active | viability, T/C (second compound 0.000949 µM, first compound 0.03 µM): 1.98% | outcome (second compound 0.000949 µM, first compound 0.0949 µM): active | viability, T/C (second compound 0.000949 µM, first compound 0.3 µM): 0.18% | viability, T/C (second compound 0.000949 µM, first compound 0.949 µM): 0.05% | viability, T/C (second compound 0.000949 µM, first compound 3 µM): 0.12% | viability, T/C (second compound 0.003 µM, first compound 0.00949 µM): 0.14% | viability, T/C (second compound 0.003 µM, first compound 0.03 µM): 0.14% | viability, T/C (second compound 0.003 µM, first compound 0.0949 µM): 0.17% | viability, T/C (second compound 0.003 µM, first compound 0.3 µM): 0.17% | viability, T/C (second compound 0.003 µM, first compound 0.949 µM): 0.14% | viability, T/C (second compound 0.003 µM, first compound 3 µM): 0.27%

COc1ccc([C@@H](O)c2cc(-c3ncnc4cc(N5CCOCC5)ccc34)c(F)cc2Cl)nn1 + COc1cc2c(cc1O)CCNC21CSC2c3c(OC(C)=O)c(C)c4c(c3C(COC1=O)N1C(O)C3Cc5cc(C)c(OC)c(O)c5C(C21)N3C)OCO4
IC50 [1]: 1670 nM | IC50 [2]: 686 nM | IC50 [3]: < 31.6 nM | IC50 [4]: < 31.6 nM | IC50 [5]: < 31.6 nM | viability, T/C [6]: 117% | viability, T/C [7]: 114% | viability, T/C [8]: 93.3% | viability, T/C [9]: 67.1% | viability, T/C [10]: 29.7% | viability, T/C [11]: 6.65% | viability, T/C [12]: 101% | viability, T/C [13]: 93.8% | viability, T/C [14]: 75.6% | viability, T/C [15]: 38.6% | viability, T/C [16]: 7.08% | viability, T/C [17]: 1.86% | viability, T/C [18]: 16.7% | viability, T/C [19]: 10.5% | viability, T/C [20]: 7.96% | viability, T/C [21]: 3.36% | viability, T/C [22]: 0.77% | viability, T/C [23]: 0.17% | viability, T/C [24]: 2.36% | viability, T/C [25]: 2.67% | viability, T/C [26]: 0.85% | viability, T/C [27]: 0.08% | viability, T/C [28]: 0.11% | viability, T/C [29]: 0.22% | viability, T/C [30]: 0.22% | viability, T/C [31]: 0.26% | viability, T/C [32]: 0.22% | viability, T/C [33]: 0.24% | viability, T/C [34]: 0.25% | viability, T/C [35]: 0.34%
